Tests used:
[1] = system: HepG2-NTCP cells; assay: Cytotoxicity assay (Cell-titer-GLO Luminescent Cell Viability Assay); assay type: cell-based, human
Description: (§1) The IC50 of kinase inhibitors was determined using the Cell-titer-GLO Luminescent Cell Viability Assay kit (Promega, Madison, WI, USA) according to the recommendations from the manufacturer. Briefly, 10,000 HepG2-NTCP cells were seeded into a 96-well plate before treatment with various kinase inhibitor concentrations. Cell viability was assayed at 24 h post-treatment.

[2] = system: HBV infection in HepG2-NTCP cells; assay: HBV pgRNA level by real-time qPCR in kinase inhibitor treated HBV infected HepG2-NTCP; assay type: cell-based, Hepatitis B virus; conditions: for HBV pgRNA Fold change (Treated/DMSO) / effect on pgRNA level (in words): 1 µM; for effect on pgRNA level (in words): both four dpi and seven dpi
Excerpt: (§2) HBV were generated from a stable transfected hepablastoma cell line (Hep38.7) that expresses HBV as described previously. Briefly, Hep38.7 (tet-off) cells were induced to produce HBV particles through tetracycline withdrawal. Twelve days after tetracycline removal, culture media containing HBV were harvested and filtered through a 0.22 µm polyethersulfone (PES) membrane filter (Corning, New York, NY, USA). The virus supernatant was then concentrated using a heparin column and eluted with high salt, followed by overnight dialysis in phosphate-buffered saline (PBS). Real-time quantitative PCR was used to quantify the genome copy number of the HBV DNA. For infection, HepG2-NTCP cells at 70% confluence 1-day post-seeding were first treated with synchronisation medium consisting of complete medium with 3% DMSO and 500 µM L-Mimosin for 24 h. the cells were then incubated for 30 min with complete medium containing 800 µM of EGTA at 37 °C in a humidified 5% CO2 incubator. After the removal of EGTA-containing medium, the cells were infected with HBV at a multiplicity of infection (MOI) of 3000 in the presence of 4% PEG 8000 and 2.5% DMSO in DMEM/F12 medium supplemented with 2% FBS for 24 h. For the mock infection, cells were incubated for 24-hour in 4% PEG 8000, 2.5% DMSO in DMEM/F12 medium supplemented with 2% FBS. Upon virus removal followed by washing with PBS four times, HBV-infected cells were cultured in post-infection medium consisting of DMEM/F12 medium with 2% FBS and 1% DMSO. The post-infection medium was replaced at four days post-infection (dpi) and infected cells were harvested at day seven dpi. For phosphoproteome analysis, five biological replicates each of mock and HBV-infected HepG2-NTCP were used.
(§3) Total RNA was extracted using the RNeasy Mini Kit (Qiagen, Hilden, Germany) and digested with DNase according to the manufacturer’s protocol. For cDNA synthesis, 250–400 ng of total RNA was reverse transcribed with the iScript cDNA Synthesis Kit (Bio-Rad, Hercules, CA, USA) following the manufacturer’s protocol. cDNA was adjusted to 5 ng/µL using nuclease-free water and 2 μL of cDNA per reaction was used for qPCR analysis. Total DNA was extracted from the cells using the DNeasy Blood and Tissue Kit (Qiagen, Hilden, Germany) according to the manufacturer’s protocol.
To determine pgRNA level after HBV infection, HBV pgRNA was quantified by real-time qPCR using two HBV-specific primers: pgRNA-Forward, 5′-[…]-3′, and pgRNA-Reverse, 5′-[…]-3′ [49]. The housekeeping gene, GAPDH, was amplified using GAPDH forward primer 5′-[…]-3′ and GAPDH reverse primer 5′-[…]-3′. The relative fold change of pgRNA between conditions was determined using the ΔΔct method. Real-time qPCR was performed with iTaq Universal SYBR Green Supermix (Bio-Rad, Hercules, CA, USA). To determine the copy number of intracellular cccDNA, a probe-based qPCR approach was used. cccDNA was amplified using cccDNA forward primer 5′-[…]-3′ and cccDNA reverse primer 5′-[…]-3′. The Taqman probe 56, FAM/[…]/ZEN/[…]/3IABkFQ was used. The cccDNA copy number was determined using a standard curve approach with a 10× serial-diluted cccDNA template, starting from 10ng (Standard rang 1 fg to 1 ng). The reaction was carried out using the Luna Univeral Probe qPCR mix (NEB, Ipswich, MA, USA). To determine the level of HBeAg secretion, the HBeAg CLIA kit (Autobio diagnostic, Zhengzhou, China) was used. This assay was performed on 50 µL of medium harvested at four or seven dpi. All experiments were performed in triplicates and repeated twice for two additional biological replicates. The p-value was calculated using Student’s t-test (two-tailed, * p-value < 0.05, ** p-value < 0.01).
HBV infection on HepG2-NTCP was carried out as described earlier. At one dpi, the kinase inhibitors (Table 1) were added to the post-infection medium after the washing and removal of viruses containing infection medium. […]

[3] = Cytotoxicity assay (Cell-titer-GLO Luminescent Cell Viability Assay); assay type: cell-based, human; conditions: human, HepG2-NTCP cells; HepG2-NTCP, cell viability 24 h post-treatment
Description: as §1

[4] = system: HBV infection in HepG2-NTCP cells; assay: Intracellular cccDNA by probe-based qPCR in kinase inhibitor treated HBV infected HepG2-NTCP; assay type: cell-based; conditions: 1 µM
Excerpt: as §2
as §3, with “Total DNA was extracted from the cells using the DNeasy Blood and Tissue Kit (Qiagen, Hilden, Germany) according to the manufacturer’s protocol.” left out
To determine pgRNA level after HBV infection, HBV pgRNA was quantified by real-time qPCR using two HBV-specific primers: pgRNA-Forward, 5′-[…]-3′, and pgRNA-Reverse, 5′-[…]-3′ [49]. […] The relative fold change of pgRNA between conditions was determined using the ΔΔct method. […] The cccDNA copy number was determined using a standard curve approach with a 10× serial-diluted cccDNA template, starting from 10ng (Standard rang 1 fg to 1 ng). […] The p-value was calculated using Student’s t-test (two-tailed, * p-value < 0.05, ** p-value < 0.01). […]

[5] = system: HBV infection in HepG2-NTCP cells; assay: HBeAg secretion (HBeAg CLIA kit) in kinase inhibitor treated HBV infected HepG2-NTCP; assay type: cell-based; conditions: 1 µM
Excerpt: as §2
To determine pgRNA level after HBV infection, HBV pgRNA was quantified by real-time qPCR using two HBV-specific primers: pgRNA-Forward, 5′-[…]-3′, and pgRNA-Reverse, 5′-[…]-3′ [49]. The housekeeping gene, GAPDH, was amplified using GAPDH forward primer 5′-[…]-3′ and GAPDH reverse primer 5′-[…]-3′. The relative fold change of pgRNA between conditions was determined using the ΔΔct method. Real-time qPCR was performed with iTaq Universal SYBR Green Supermix (Bio-Rad, Hercules, CA, USA). To determine the copy number of intracellular cccDNA, a probe-based qPCR approach was used. cccDNA was amplified using cccDNA forward primer 5′-[…]-3′ and cccDNA reverse primer 5′-[…]-3′. The Taqman probe 56, FAM/[…]/ZEN/[…]/3IABkFQ was used. The cccDNA copy number was determined using a standard curve approach with a 10× serial-diluted cccDNA template, starting from 10ng (Standard rang 1 fg to 1 ng). […] The p-value was calculated using Student’s t-test (two-tailed, * p-value < 0.05, ** p-value < 0.01). […]

[6] = target: CLKs; conditions: target CLKs; reported value, no reference given; cited from earlier work
[7] = target: CDK2; conditions: target CDK2; reported value, no reference given; cited from earlier work
[8] = target: CDK5; conditions: target CDK5; reported value, no reference given; cited from earlier work
[9] = target: CDK1; conditions: target CDK1; reported value, no reference given; cited from earlier work

SMILES	IC50 [1] [µM]	HBV pgRNA Fold change (Treated/DMSO) ([2]; 4dpi)	HBV pgRNA Fold change (Treated/DMSO) ([2]; 7dpi)	effect on pgRNA level (in words) [2]	Intracellular cccDNA Fold change (Treated/DMSO) ([4]; 4dpi)	Intracellular cccDNA Fold change (Treated/DMSO) ([4]; 7dpi)	HBeAg Titer Fold change (Treated/DMSO) ([5]; 4dpi)	HBeAg Titer Fold change (Treated/DMSO) ([5]; 7dpi)	also measured
CN(C)c1nc2c(Br)c(Br)c(Br)c(Br)c2[nH]1 [DMAT]	> 500	–	–	–	–	–	–	–	effect on pgRNA transcription (in words) ([2]; 10 µM, both four and seven dpi): reduction of pgRNA transcription
Cn1cc(-c2ccc3occ(-c4cccc(-c5ccncc5)c4)c3n2)cn1 [MU1210]	–	0.406	0.709	reduction in the pgRNA level	0.678	0.479	0.415	0.105	IC50 at 24 h [3]: 16.7 µM; Ki [6]: 0.023 µM
Cn1cc(-c2ccc3occ(-c4ccccc4-c4ccccc4)c3n2)cn1 [MU140]	–	1.014	1.114	no such reduction	0.894	0.930	0.904	0.993	–
Nc1cc(Nc2ccc(S(N)(=O)=O)cc2)ncn1 [PNU112455A11]	> 500	–	–	–	–	–	–	–	Ki [7]: 3.2 µM; Ki [8]: 3.6 µM
O=C1NC(=NCc2cccs2)S/C1=C\c1ccc2ncccc2c1 [RO-3306]	–	–	–	–	–	–	–	–	Ki [9]: 0.035 µM

Source: publication PMC9104152, “Phosphoproteomics Unravel HBV Triggered Rewiring of Host Phosphosignaling Events” (International Journal of Molecular Sciences, 2022)
